# Measured values from PubChem BioAssay AID192 (DTP/NCI, 2004).
# “And” between values parts separate entries of the source, which are not always exact repeats. Identical values can stand only once. Toxic doses and inconclusive results are not listed.
# Tested on: BDF1 mice, B16 melanoma ip, median survival T/C
# Test: NCI In Vivo Anticancer Drug Screen. Data for tumor model B16 Melanoma (intraperitoneal) in B6D2F1 (BDF1) mice
# Conditions: endpoint: median survival time, higher = longer survival
# In short: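 Antitumor activity is assessed in mice bearing a transplanted tumor, with survival or tumor size compared against vehicle-dosed controls and expressed as T/C.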
# [1] = dose: 0.75 mg/kg/injection, schedule: Q01DX009 (ip), vehicle: Klucel (hydroxypropylcellulose) (HPC)
# [2] = dose: 1.5 mg/kg/injection, schedule: Q01DX009 (ip), vehicle: Klucel (hydroxypropylcellulose) (HPC)
# [3] = dose: 100.0 mg/kg/injection, schedule: Q01DX009 (ip), vehicle: Klucel (hydroxypropylcellulose) (HPC)
# [4] = dose: 200.0 mg/kg/injection, schedule: Q01DX009 (ip), vehicle: Klucel (hydroxypropylcellulose) (HPC)
# [5] = dose: 400.0 mg/kg/injection, schedule: Q01DX009 (ip), vehicle: Klucel (hydroxypropylcellulose) (HPC)
# [6] = dose: 0.09 mg/kg/injection, schedule: Q01DX009 (ip), vehicle: Klucel (hydroxypropylcellulose) (HPC)
# [7] = dose: 12.5 mg/kg/injection, schedule: Q01DX009 (ip), vehicle: saline with Tween-80
# [8] = dose: 25.0 mg/kg/injection, schedule: Q01DX009 (ip), vehicle: saline with Tween-80
# [9] = dose: 50.0 mg/kg/injection, schedule: Q01DX009 (ip), vehicle: saline with Tween-80
# [10] = dose: 25.0 mg/kg/injection, schedule: Q04DX003 (ip), vehicle: Klucel (hydroxypropylcellulose) (HPC)
# [11] = dose: 50.0 mg/kg/injection, schedule: Q04DX003 (ip), vehicle: Klucel (hydroxypropylcellulose) (HPC)
# [12] = dose: 100.0 mg/kg/injection, schedule: Q04DX003 (ip), vehicle: Klucel (hydroxypropylcellulose) (HPC)
# [13] = dose: 400.0 mg/kg/injection, schedule: Q04DX003 (ip), vehicle: Klucel (hydroxypropylcellulose) (HPC)
# [14] = dose: 100.0 mg/kg/injection, schedule: Q01DX009 (ip), vehicle: saline with Tween-80
smiles,measurement,setting,value
CC[C@]12CN3CCc4c([nH]c5ccccc45)[C@@](C(=O)OC)(c4cc5c(cc4OC)N(C)[C@H]4[C@@](O)(C(=O)OC)[C@H](OC(C)=O)[C@]6(CC)C=CCN7CC[C@]54[C@@H]76)CC(C3)[C@H]1O2 (stereo partly specified),T/C,"dose: 0.05 mg/kg/injection, schedule: Q01DX009 (ip), vehicle: saline",106 % of control
same,T/C,"dose: 0.1 mg/kg/injection, schedule: Q01DX009 (ip), vehicle: saline",101 % of control
same,T/C,"dose: 0.2 mg/kg/injection, schedule: Q01DX009 (ip), vehicle: saline",97 % of control
same,T/C,"dose: 0.4 mg/kg/injection, schedule: Q01DX009 (ip), vehicle: saline",113 % of control
same,T/C,[1],107 % of control
same,T/C,"dose: 0.75 mg/kg/injection, schedule: Q01DX009 (ip), vehicle: saline",90 % of control
same,T/C,"dose: 0.8 mg/kg/injection, schedule: Q01DX009 (ip), vehicle: saline",116 % of control
same,T/C,[2],115 % of control
same,T/C,"dose: 1.5 mg/kg/injection, schedule: Q04DX003 (ip), vehicle: saline",102 % of control
same,T/C,"dose: 1.6 mg/kg/injection, schedule: Q01DX009 (ip), vehicle: saline",113 % of control
same,T/C,"dose: 3.0 mg/kg/injection, schedule: Q01DX009 (ip), vehicle: saline",187 % of control
same,T/C,"dose: 3.0 mg/kg/injection, schedule: Q04DX003 (ip), vehicle: saline",111 % of control
same,T/C,"dose: 3.2 mg/kg/injection, schedule: Q01DX009 (ip), vehicle: saline",162 % of control
same,T/C,"dose: 4.0 mg/kg/injection, schedule: Q01DX009 (ip), vehicle: saline",175 % of control and 202 % of control
same,T/C,"dose: 6.0 mg/kg/injection, schedule: Q01DX009 (ip), vehicle: saline",221 % of control [middle of 4 runs]
same,T/C,"dose: 6.4 mg/kg/injection, schedule: Q01DX009 (ip), vehicle: saline",157 % of control
same,T/C,"dose: 9.0 mg/kg/injection, schedule: Q01DX009 (ip), vehicle: saline",212 % of control and 248 % of control
same,T/C,"dose: 12.0 mg/kg/injection, schedule: Q01DX009 (ip), vehicle: Klucel (hydroxypropylcellulose) (HPC)",168 % of control
same,T/C,"dose: 12.0 mg/kg/injection, schedule: Q01DX009 (ip), vehicle: saline",161 % of control
same,T/C,"dose: 12.0 mg/kg/injection, schedule: Q04DX003 (ip), vehicle: saline",152 % of control
same,T/C,"dose: 12.8 mg/kg/injection, schedule: Q01DX009 (ip), vehicle: saline",169 % of control
CCOC(=O)C1C(=O)CC(=O)C(C(=O)OCC)C1c1ccc(O)cc1 (stereo unspecified),T/C,[3],100 % of control
same,T/C,[4],93 % of control
same,T/C,[5],103 % of control
Cc1nonc1-c1ccc2c(c1)OCO2,T/C,"dose: 25.0 mg/kg/injection, schedule: Q01DX009 (ip), vehicle: Klucel (hydroxypropylcellulose) (HPC)",98 % of control
same,T/C,"dose: 50.0 mg/kg/injection, schedule: Q01DX009 (ip), vehicle: Klucel (hydroxypropylcellulose) (HPC)",93 % of control
same,T/C,[3],91 % of control
same,T/C,[4],99 % of control
CN1C(=O)C=CC1=O,T/C,"dose: 0.5 mg/kg/injection, schedule: Q02DX009 (ip), vehicle: saline",109 % of control
same,T/C,"dose: 1.0 mg/kg/injection, schedule: Q02DX009 (ip), vehicle: saline",99 % of control
same,T/C,"dose: 2.0 mg/kg/injection, schedule: Q02DX009 (ip), vehicle: saline",98 % of control
same,T/C,"dose: 4.0 mg/kg/injection, schedule: Q02DX009 (ip), vehicle: saline",90 % of control
Cc1ccc(S(=O)(=O)c2ccc(Sc3cccc[n+]3[O-])c3nonc23)cc1,T/C,"dose: 80.0 mg/kg/injection, schedule: Q04DX002 (ip), vehicle: saline with Tween-80",97 % of control
same,T/C,"dose: 160.0 mg/kg/injection, schedule: Q04DX002 (ip), vehicle: saline with Tween-80",102 % of control
same,T/C,"dose: 320.0 mg/kg/injection, schedule: Q04DX002 (ip), vehicle: saline with Tween-80",100 % of control
COc1cc2[nH]c(C)c(CCN3CCN(c4ccccc4)CC3)c2cc1OC,T/C,"dose: 0.04 mg/kg/injection, schedule: Q01DX009 (ip), vehicle: Klucel (hydroxypropylcellulose) (HPC)",107 % of control
same,T/C,[6],92 % of control
same,T/C,"dose: 0.19 mg/kg/injection, schedule: Q01DX009 (ip), vehicle: Klucel (hydroxypropylcellulose) (HPC)",93 % of control
same,T/C,"dose: 0.39 mg/kg/injection, schedule: Q01DX009 (ip), vehicle: Klucel (hydroxypropylcellulose) (HPC)",106 % of control
same,T/C,"dose: 0.78 mg/kg/injection, schedule: Q01DX009 (ip), vehicle: Klucel (hydroxypropylcellulose) (HPC)",102 % of control
CCCCOc1ccc(NC(=O)CCl)cc1,T/C,[7],99 % of control
same,T/C,[8],100 % of control
same,T/C,[9],99 % of control
CC1(CO)C(O)CCC2(C)C1CCC1CC3CC12CCC3(O)CO (stereo unspecified),T/C,"dose: 0.78 mg/kg/injection, schedule: Q03HX020 (oral), vehicle: Klucel (hydroxypropylcellulose) (HPC)",97 % of control
same,T/C,"dose: 1.56 mg/kg/injection, schedule: Q03HX020 (oral), vehicle: Klucel (hydroxypropylcellulose) (HPC)",107 % of control
same,T/C,"dose: 3.12 mg/kg/injection, schedule: Q03HX020 (ip), vehicle: Klucel (hydroxypropylcellulose) (HPC)",89 % of control
same,T/C,"dose: 3.12 mg/kg/injection, schedule: Q03HX020 (oral), vehicle: Klucel (hydroxypropylcellulose) (HPC)",99 % of control
same,T/C,"dose: 6.25 mg/kg/injection, schedule: Q03HX020 (ip), vehicle: Klucel (hydroxypropylcellulose) (HPC)",108 % of control
same,T/C,"dose: 6.25 mg/kg/injection, schedule: Q03HX020 (oral), vehicle: Klucel (hydroxypropylcellulose) (HPC)",102 % of control
same,T/C,"dose: 12.5 mg/kg/injection, schedule: Q03HX020 (ip), vehicle: Klucel (hydroxypropylcellulose) (HPC)",118 % of control
same,T/C,"dose: 12.5 mg/kg/injection, schedule: Q03HX020 (oral), vehicle: Klucel (hydroxypropylcellulose) (HPC)",99 % of control
same,T/C,"dose: 25.0 mg/kg/injection, schedule: Q03HX020 (ip), vehicle: Klucel (hydroxypropylcellulose) (HPC)",115 % of control
same,T/C,"dose: 25.0 mg/kg/injection, schedule: Q03HX020 (oral), vehicle: Klucel (hydroxypropylcellulose) (HPC)",98 % of control
same,T/C,[10],100 % of control
same,T/C,"dose: 50.0 mg/kg/injection, schedule: Q03HX020 (ip), vehicle: Klucel (hydroxypropylcellulose) (HPC)",176 % of control
same,T/C,"dose: 50.0 mg/kg/injection, schedule: Q03HX020 (oral), vehicle: Klucel (hydroxypropylcellulose) (HPC)",104 % of control
same,T/C,[11],105 % of control
same,T/C,"dose: 100.0 mg/kg/injection, schedule: Q03HX020 (oral), vehicle: Klucel (hydroxypropylcellulose) (HPC)",117 % of control
same,T/C,[12],117 % of control
same,T/C,[13],163 % of control
O=CNC(c1ccccc1)(c1ccccc1)c1ccccc1,T/C,[3],97 % of control
same,T/C,[4],94 % of control
same,T/C,[5],94 % of control
CCC1OCCN1C(C)C (stereo unspecified),T/C,"dose: 25.0 mg/kg/injection, schedule: Q01DX009 (ip), vehicle: saline",102 % of control
same,T/C,"dose: 50.0 mg/kg/injection, schedule: Q01DX009 (ip), vehicle: saline",106 % of control
COC(=O)CC(=O)C=P(c1ccccc1)(c1ccccc1)c1ccccc1,T/C,[7],98 % of control
same,T/C,[8],103 % of control
same,T/C,[9],107 % of control
same,T/C,[14],113 % of control
CCC(C)Nc1ccc(N)cc1 (stereo unspecified),T/C,[6],97 % of control
same,T/C,"dose: 0.18 mg/kg/injection, schedule: Q01DX009 (ip), vehicle: Klucel (hydroxypropylcellulose) (HPC)",99 % of control
same,T/C,"dose: 0.37 mg/kg/injection, schedule: Q01DX009 (ip), vehicle: Klucel (hydroxypropylcellulose) (HPC)",89 % of control
same,T/C,[1],99 % of control
CCCCNC(=O)Oc1ccc(OCc2ccccc2)cc1,T/C,[14],107 % of control
same,T/C,"dose: 200.0 mg/kg/injection, schedule: Q01DX009 (ip), vehicle: saline with Tween-80",107 % of control
same,T/C,"dose: 400.0 mg/kg/injection, schedule: Q01DX009 (ip), vehicle: saline with Tween-80",92 % of control
Cc1cc(C)c(NC(=O)NC(C)C)c(C)c1,T/C,[12],100 % of control
same,T/C,"dose: 200.0 mg/kg/injection, schedule: Q04DX003 (ip), vehicle: Klucel (hydroxypropylcellulose) (HPC)",90 % of control
same,T/C,[13],87 % of control
Oc1cc2ccccc2c(-c2c(O)c(O)cc3ccccc23)c1O,T/C,[7],114 % of control
same,T/C,[8],117 % of control
same,T/C,[9],117 % of control
same,T/C,[14],110 % of control
CN(C)c1ccc(C(N)=O)cn1,T/C,[2],124 % of control
CC(Br)C1(c2cccc([N+](=O)[O-])c2)OCCO1 (stereo unspecified),T/C,[10],94 % of control
same,T/C,[11],92 % of control
